# Source: PMC12189828, “Substitution of Proline Residues by 4-Fluoro-L-Proline Affects the Mechanism of the Proline-Rich Antimicrobial Peptide Api137” (Antibiotics, 2025)
# Where a SMILES comes first, the peptide text is derived from it. [ ]: non-standard residue; d: D form. The star is where a group is joined. Orn(α-tetramethylguanidino) = CN(C)C(=N[C@@H](CCCN)C(=O)*)N(C)C; Pro(trans-4-F) = O=C(O)[C@@H]1C[C@@H](F)CN1
# Key:
# [1] = target: 70S ribosome isolated from E. coli BW25113 (E. coli (endogenous in E. coli BW25113)); experiment: fluorescence polarisation; direct titration: 2-fold dilution series (22 steps) of crude 70S ribosome extract, cf-labeled peptide (10 uL, 40 nmol/L) added; ribosome preparation buffer (20 mmol/L HEPES-KOH, 6 mmol/L MgCl2, 30 mmol/L NH4Cl, pH 7.6); 28 +/- 1 C, 90 min
# [2] = tested on: E. coli RN31; experiment: Growth inhibition of E. coli RN31 during 90 min exponential growth phase; assay type: cell-based, Escherichia coli; conditions: for reduction of bacterial growth vs untreated control: E. coli RN31, 33% TSB, peptide 8 µg/mL, OD600, two biological replicates (n = 2)
# Method: The following steps were performed on ice. Cells were harvested by centrifugation (4000× g, 4 °C, 25 min), washed with TICO buffer (20 mmol/L Hepes-KOH, pH 7.6, 6 mmol/L MgAc2, 30 mmol/L KAc), centrifuged (4000× g, 25 min, 4 °C), and stored at −80 °C. The cell pellet was suspended in TICO buffer (500 µL) and mixed with silica beads (zirconium glass pellets, 100 µm diameter; Carl Roth; Karlsruhe, Germany) to lyse the cells on a FastPrep-24^TM 5G (MP Biomedicals, Solon, OH, USA) using three disruption cycles (30 s, 6.0 m/s) interrupted by 1 min of incubation on ice after each cycle. Cell debris was removed by centrifugation (5000× g, 4 °C, 5 min), the supernatant was transferred to a new reaction tube, centrifuged (20,000× g, 4 °C, 20 min), the absorbance was recorded at 260 nm on a NanoPhotometer® NP80, and the sample was stored at −80 °C. […]
# [3] = target: 70S ribosomes isolated from E. coli BW25113 (Escherichia coli, UniProt P60723+P61175); experiment: Fluorescence polarization, competition with cf-Api137 for 70S ribosome binding (Ki); conditions: ratio of Ki to the Ki of Api137
# Method: E. coli BW25113 were cultivated in LB medium and harvested by centrifugation (5000× g, 15 min, 4 °C) at an OD600 of 3–4. Cell pellets were washed in ribosome preparation buffer (20 mmol/L HEPES-KOH, 6 mmol/L MgCl2, 30 mmol/L NH4Cl, pH 7.6, 4 °C), centrifuged (4100× g, 30 min, 4 °C), and resuspended in ribosome preparation buffer (0.5 g/L) containing freshly added 2-mercaptoethanol (4 mmol/L) and lysozyme. Cells were incubated on ice for 30 min and disrupted in six cycles using a FastPrep-24^TM 5G instrument (MP Biomedicals, Eschwege, Germany) with the BigPrep 50 mL setting (40 s, 4.0 m/s), interrupted by one minute of incubation on ice between the cycles. After a centrifugation step (1620× g, 5 min, 4 °C), DNase I (5 U/mL) was added to the supernatant and incubated for 1 h on ice. Cell debris was removed by centrifugation at 16,000× g (30 min, 4 °C) and twice at 32,000× g (60 min, 4 °C). Crude ribosomes were obtained by centrifugation at 165,000× g (17 h, 4 °C). […]
# Inhibition constants (Ki) were measured for the 70S ribosome extract using cf-labeled and unlabeled peptides in ribosome preparation buffer. […] Fluorescence polarization was determined on a PARADIGM^TM microplate reader in the top reading position (λex = 485 nm, λem = 535 nm). […] Ki values were calculated as described by Mathias and Jung.
# [4] = tested on: in vitro expression of sfGFP in the presence of RF1; experiment: In vitro transcription-translation (iTT) assay of sfGFP in the presence of RF1; assay type: biochemical; conditions: peptide 5 µmol/L, RF1, 37 °C, 2 h, fluorescence, normalized to absence of PrAMPs, n = 3
# Method: The sfGFP expression analysis relied on the NEB PureExpress Delta RF123 Kit (New England Biolabs, Frankfurt, Germany). The DNA template encoding sfGFP with a UAG stop codon was amplified from the pY71sfGFP vector by PCR using the primers sfGFP fwd ([…]) and sfGFP rev ([…]). The release factor RF1 of the kit was diluted 50-fold (v/v) in 1× Pure System Buffer (PSB, 1 mol/L magnesium acetate, 0.5 mol/L K3PO4 (pH 7.3), 1 mol/L potassium glutamate, 1 mol/L NH4Cl, 0.5 mol/L CaCl2, 1 mol/L spermidine, 0.1 mol/L putrescine, 0.1 mol/L DTT). sfGFP expression was performed in a freshly prepared mixture of kit solution A (2 µL), kit solution B (1.5 µL), 50-fold diluted RF1 (0.5 µL), sfGFP template (0.1325 pmol, 35 ng) or water as control (0.25 µL), PSB (0.25 µL), and a PrAMP (50 or 0 µmol/L) dissolved in water (0.5 µL). The reaction mixture was transferred to a black 384-well plate (flat bottom, PS, 784900, Greiner Bio-One GmbH), covered with a lid, and incubated (37 °C, 2 h) in a microplate reader (Gemini EM, Molecular Devices, San Jose, CA, USA). Fluorescence was recorded every 10 min (λex = 485 nm, λem = 535 nm).
# [5] = tested on: 50S subunit assembly / 70S ribosome in E. coli RN31; experiment: Ribosome profile analysis (RPA), sucrose gradient of E. coli RN31 lysate; assay type: cell-based, Escherichia coli; conditions: 90 min; for RPA [pre-50S formation]: E. coli RN31, 33% TSB, peptide 8 µg/mL, 5–25% sucrose gradient, n = 2 (Api137 n = 7)
# Method: E. coli RN31 was grown in 33% TSB (37 °C, 200 rpm) from a starting OD600 of 0.05 to an OD600 of 0.2, measured on a NanoPhotometer® (NP80; Implen; Westlake Village, CA, USA), and divided into subcultures that were inoculated with a peptide ([…]) before being cultured for 90 min (37 °C, 200 rpm). The following steps were performed on ice. Cells were harvested by centrifugation (4000× g, 4 °C, 25 min), washed with TICO buffer (20 mmol/L Hepes-KOH, pH 7.6, 6 mmol/L MgAc2, 30 mmol/L KAc), centrifuged (4000× g, 25 min, 4 °C), and stored at −80 °C. The cell pellet was suspended in TICO buffer (500 µL) and mixed with silica beads (zirconium glass pellets, 100 µm diameter; Carl Roth; Karlsruhe, Germany) to lyse the cells on a FastPrep-24^TM 5G (MP Biomedicals, Solon, OH, USA) using three disruption cycles (30 s, 6.0 m/s) interrupted by 1 min of incubation on ice after each cycle. Cell debris was removed by centrifugation (5000× g, 4 °C, 5 min), the supernatant was transferred to a new reaction tube, centrifuged (20,000× g, 4 °C, 20 min), the absorbance was recorded at 260 nm on a NanoPhotometer® NP80, and the sample was stored at −80 °C.
# A 5% (w/v) sucrose solution (6.5 mL) in TICO buffer containing 2-mercaptoethanol (4 mmol/L) was poured into an open-top centrifuge tube (13.2 mL, 14 × 89 mm, Beckman Coulter) and bottomed with a 25% (w/v) sucrose solution (6.5 mL) in TICO buffer containing 2-mercaptoethanol (4 mmol/L) using a cannula. The tube was sealed with parafilm and placed horizontally at 4 °C for 3 h and vertically at 4 °C for 30 min. A portion of the upper layer (550 µL) was replaced by lysate (500 µL, A260 = 30) and centrifuged using a swing-out rotor (SW 41 Ti, 52,500× g, 4 °C, 19 h) without a brake. The contents were transferred from bottom-up to obtain equal volumes in all wells of a black 96-well plate with a flat bottom (96 Well PP black Greiner Bio-One GmbH, Frickenhausen, Germany) using the Äkta Purifier 10 system, and absorbance was recorded at a wavelength of 254 nm. Fluorescence was measured in the plate using the PARADIGM at excitation (λex) and emission (λem) wavelengths of 485 nm and 535 nm for eGFP and 585 nm and 635 nm, respectively, for mCherry and normalized to the 70S ribosome peak (set to 100%).
# [6] = target: 70S ribosome isolated from E. coli BW25113 (E. coli (endogenous in E. coli BW25113)); experiment: fluorescence polarisation; competition: 2-fold dilution series (21 steps) of unlabeled peptide (20 uL, 300 umol/L) pre-incubated 90 min with crude 70S ribosome extract (at ~90% of the upper Kd plateau), then cf-Api137 (10 uL, 80 nmol/L) for 90 min; ribosome preparation buffer, 28 +/- 1 C; Ki calculated from IC50
compound,measurement,setting,value
5(6)-carboxyfluorescein-labeled Api137 (peptide),Kd,[1],244 nM
CC[C@H](C)[C@H](NC(=O)[C@H](Cc1ccc(O)cc1)NC(=O)[C@@H](NC(=O)[C@@H]1CCCN1C(=O)[C@H](CCCNC(=N)N)NC(=O)[C@H](CC(N)=O)NC(=O)[C@H](CC(N)=O)NC(=O)[C@H](CCCN)N=C(N(C)C)N(C)C)C(C)C)C(=O)N1CCC[C@H]1C(=O)N[C@@H](CCCNC(=N)N)C(=O)N1CCC[C@H]1C(=O)N[C@@H](CCCNC(=N)N)C(=O)N1C[C@H](F)C[C@H]1C(=O)N1CCC[C@H]1C(=O)N[C@@H](Cc1c[nH]cn1)C(=O)N1CCC[C@H]1C(=O)N[C@@H](CCCNC(=N)N)C(=O)N[C@@H](CC(C)C)C(=O)O [Api844] ({Orn(α-tetramethylguanidino)}-NNRPVYIPRPR[Pro(trans-4-F)]PHPRL-OH),reduction of bacterial growth vs untreated control,[2]; 90 min,70%
same,fold higher Ki than Api137,[3],8 fold
same,Residual iTT (sfGFP expression relative to no PrAMP),[4],28 ± 1.2%
same,RPA [pre-50S formation],[5],yes
CC[C@H](C)[C@H](NC(=O)[C@H](Cc1ccc(O)cc1)NC(=O)[C@@H](NC(=O)[C@@H]1CCCN1C(=O)[C@H](CCCNC(=N)N)NC(=O)[C@H](CC(N)=O)NC(=O)[C@H](CC(N)=O)NC(=O)[C@H](CCCN)N=C(N(C)C)N(C)C)C(C)C)C(=O)N1CCC[C@H]1C(=O)N[C@@H](CCCNC(=N)N)C(=O)N1CCC[C@H]1C(=O)N[C@@H](CCCNC(=N)N)C(=O)N1CCC[C@H]1C(=O)N1CCC[C@H]1C(=O)N[C@@H](Cc1c[nH]cn1)C(=O)N1C[C@H](F)C[C@H]1C(=O)N[C@@H](CCCNC(=N)N)C(=O)N[C@@H](CC(C)C)C(=O)O [Api850] ({Orn(α-tetramethylguanidino)}-NNRPVYIPRPRPPH[Pro(trans-4-F)]RL-OH),reduction of bacterial growth vs untreated control,[2]; 90 min,84%
same,OD600 of treated culture after 90 min,"[2]; E. coli RN31, peptide 8 µg/mL, 90 min, initial OD600 = 0.226 ± 0.006 at 0 min",0.333 ± 0.002
same,cell count relative to the initial cell count,"[2]; E. coli RN31, peptide 8 µg/mL, 90 min vs 0 min (OD600)",~ 140%
same,Residual iTT (sfGFP expression relative to no PrAMP),[4]; listed as 4R-Fpr16,28%
same,Residual iTT (sfGFP expression relative to no PrAMP),[4]; listed as Pro16 4R-Fpr (trans),28 ± 0.7%
same,RPA [pre-50S formation],[5],yes
same,"ribosomal profile, pre-50S peak","[5]; E. coli RN31, adjusted peptide concentration 4 µg/mL",reduced the area of the pre-50S peak
Api137 (peptide),Ki,[6],2.6 nM
